Results from article PMC8557866, “Novel Small Molecule Growth Inhibitor Affecting Bacterial Outer Membrane Reduces Extraintestinal Pathogenic Escherichia coli (ExPEC) Infection in Avian Model” (Microbiology Spectrum, 2021).

What was measured:
APEC serotype O78 = test system: APEC serotype O78
Method: The efficacy of GIs was assessed using commercial broiler chickens (n = 6/group). […] GI compounds (ChemBridge, San Diego, CA) dissolved in dimethyl sulfoxide (DMSO) were administered orally using a syringe, twice a day, from day 4 (1 day before APEC infection) to day 8 (3 days postinfection [dpi]). The dose of each GI is described in Table S1. […] Chickens that were infected and vehicle-treated (positive control [PC]) and noninfected and nontreated (negative control [NC]) were included as controls. On day 5, chickens were infected subcutaneously (s.c.) with rifampin-resistant (Rif^r) APEC serotype O78 ([18]) (1 × 10^7 CFU/chicken). […] To prepare the APEC inoculum for infection, Rif^r APEC O78 (50 μg/ml rifampin) was grown to logarithmic phase in LB medium, washed twice with phosphate-buffered saline (PBS), and adjusted to an optical density at 600 nm (OD600) of 0.1 (5 × 10^7 CFU/ml). The clinical signs and mortality were recorded until 7 dpi. Chickens that died during this period were necropsied on the same day, lesions in internal organs (liver, heart, lung, and air sacs) were scored as described previously ([63], [71]), and the APEC loads were quantified in internal organs (liver, heart, lung, and kidney) by plating the tissue homogenates on MacConkey agar plates containing 50 μg/ml rifampin ([18]). At 7 dpi (day 12), all live birds were euthanized, lesions were scored, and the APEC loads in internal organs were quantified as described above. The body weight of chickens was measured before GI treatment (day 3) and at the day of necropsy (day 12).

APEC O78 = experiment: Comparative efficacy of GI-7 and sulfadimethoxine, floor trial; format: in vivo, commercial broiler chickens; design: Cumulative lesion score / Mean lesion score in Liver / Mean lesion score in Heart / Mean lesion score in Lung / Mean lesion score in Air sacs: scale not given here
Method: At day 13 (7 dpi), half of the chickens from each group, and at day 42 (slaughter age), 10 chickens from each group were necropsied and lesions and APEC loads were assessed as described above.

[1] = Quantification of residue in chicken tissues (LC-MS); format: in vivo, chickens
Source text: Chickens (n = 5/time point) from an experimental set-up as described above for the floor trial were sacrificed at 2 days (day 13; 2 DPLT), 5 days (day 16; 5 DPLT), and 31 days (day 42; 31 DPLT) post-last treatment. […] Tissue samples from chickens treated with SDM were used for comparison. […] Details of the methods are included in the supplemental material.

LptE = experiment: Membrane protein SDS-PAGE and LC-MS/MS (emPAI of LptE); format: cell-based, Escherichia coli; settings: GI-7-treated APEC; untreated APEC 13.84
Method: A GI-7-treated culture of APEC O78 was prepared as described above, and the fractions of cytoplasmic and total membrane proteins were prepared using ultracentrifugation as described previously ([80]). […] The gel was stained with Coomassie blue R-250, the bands of ∼21.4 kDa (expected size of LptE) were excised from both untreated and GI-7-treated lanes of the gel, and in-gel digestion was performed as previously described ([81]). LC-MS/MS of the digested samples was performed on the Thermo Scientific Orbitrap Fusion MS instrument equipped with an EASY-Spray source operated in positive ion mode (CCIC, MS&P Facility, OSU). The Thermo Scientific UltiMate 3000 RSLCnano system containing an Acclaim PepMap 100 (75 μm by 2 cm) trap column and Easy-Spray nano separation column (PepMap RSLC C18, […], 100 Å, 75 μm by 150 mm; Thermo Scientific) was used for injection and elution of samples. For the proteomics database search, the E. coli Uniprot protein database with trypsin/P (selected as the enzyme) was used with the fragment mass tolerance set to 0.5 Da. Mascot Daemon (Matrix Science version 2.6.0) and Scaffold Proteome software were used for the MS/MS data analysis. […] The exponentially modified protein abundance index (emPAI) ([82]) was also calculated to compare the LptE levels between untreated and GI-7-treated gel fragments.

[2] = test system: eukaryotic cells and wax moth larva; design: method as in PMID 30333507; settings: cited from earlier work
[3] = comparative efficacy trial, vs PC
[4] = comparative efficacy, GI-7 60 mg/liter, SDM 495.3 mg/liter, 7 dpi

## COc1ccc(CNCc2cccc(C(F)(F)F)c2)cc1OCC(O)CN1CCCC1 (stereo not shown) [GI-7]
APEC serotype O78; efficacy trial, oral
  Mean APEC load, Heart: 2.7 Log CFU/g tissues
  Mean APEC load, Kidney: 2.3 Log CFU/g tissues
  Mean APEC load, Liver: 2.1 Log CFU/g tissues
  Mean APEC load, Lung: 2.7 Log CFU/g tissues
  Mean lesion score in Air sacs: 0.7
  Mean lesion score in Heart: 0.8
  Mean lesion score in Liver: 0.7
  Mean lesion score in Lung: 0.2
APEC serotype O78; efficacy trial, oral, P ≤ 0.1, log rank test
  Survival of chickens: prolonged the survival
APEC serotype O78; efficacy trial, oral, PC 6.2
  Cumulative lesion score: 2.3
APEC serotype O78; efficacy trial, oral, PC mortality 58.3%
  Mortality reduction compared to PC group: 41.7%
APEC serotype O78; efficacy trial, oral, vs PC
  % reduction in severity, Air sacs lesions: 52.9%
  % reduction in severity, Heart lesions: 60%
  % reduction in severity, Liver lesions: 60%
  % reduction in severity, Lung lesions: 83.3%
  log reduction in APEC load, Heart: 2.3 Log CFU/g tissues
  log reduction in APEC load, Kidney: 3.2 Log CFU/g tissues
  log reduction in APEC load, Liver: 2.5 Log CFU/g tissues
  log reduction in APEC load, Lung: 2.4 Log CFU/g tissues
APEC serotype O78; in vivo
  BWG (body weight gain): 261.3±20.4
APEC O78; 60 mg/liter in drinking water, as given in the abstract
  Reduction of severity of lesions: 29.5%
APEC O78; GI-7 60 mg/liter, SDM 495.3 mg/liter in drinking water, PC mortality 41.2%
  Mortality reduction compared to PC group: 14.7%
APEC O78; comparative efficacy trial
  Mean APEC load, Heart: 6.1 Log CFU/g tissues
  Mean APEC load, Kidney: 6.1 Log CFU/g tissues
  Mean APEC load, Liver: 5.7 Log CFU/g tissues
  Mean APEC load, Lung: 6.1 Log CFU/g tissues
APEC O78; [3]
  log reduction in APEC load, Heart: 1.8 Log CFU/g tissues
  log reduction in APEC load, Kidney: 1.6 Log CFU/g tissues
  log reduction in APEC load, Liver: 1.8 Log CFU/g tissues
  log reduction in APEC load, Lung: 2.0 Log CFU/g tissues
APEC O78; comparative efficacy, 7 dpi
  Cumulative lesion score: 9.8
APEC O78; [4]
  Mean lesion score in Air sacs: 3.0
  Mean lesion score in Heart: 3.2
  Mean lesion score in Liver: 2.3
  Mean lesion score in Lung: 1.3
APEC O78; comparative efficacy, vs PC
  % reduction in severity, Air sacs lesions: 9.9%
  % reduction in severity, Heart lesions: 10.2%
  % reduction in severity, Liver lesions: 7.2%
  % reduction in severity, Lung lesions: 29.5%
APEC O78; floor trial
  Effect on body weight gain (BWG) and feed conversion ratio (FCR): No significant effect
APEC O78; floor trial, day 42 minus day 1, NC 2,501.2
  Overall BWG: 2,432.4 g
APEC O78; floor trial, NC 1.45
  Overall FCR: 1.45
APEC O78; floor trial, P < 0.1
  Survival of chickens: increased the survival
[1]; 2 DPLT
  Residue concentration in muscle: 0.04 ± 0.03 ppm/g tissue
  Residue level in kidney: 0.7 ± 0.6 ppm/g tissue
  Residue level in liver: 0.5 ± 0.4 ppm/g tissue
[1]; 5 DPLT
  Residue concentration in muscle: 0.01 ± 0.01 ppm/g tissue
  Residue level in kidney: 0.3 ± 0.3 ppm/g tissue
  Residue level in liver: 0.2 ± 0.2 ppm/g tissue
[1]; 31 DPLT
  Residue concentration in muscle: 0.0 ± 0.0 ppm/g tissue
  Residue level in kidney: 0.0 ± 0.0 ppm/g tissue
  Residue level in liver: 0.0 ± 0.0 ppm/g tissue
[1]; in vivo
  Residues in tissues relative to FDA limits for antibiotics: below the limits permitted by the Food and Drug Administration
LptE
  emPAI of LptE: 8.46
[2]
  Toxicity to eukaryotic cells and wax moth larva: minimally toxic
